In ChEMBL document CHEMBL1150747, “Isolation of deoxyshikonin, an antidermatophytic principle from Lithospermum erythrorhizon cell cultures” (1988):
Converted amounts (≈) assume the structure as drawn. The source made the active and inactive calls. No cut-off for these calls is given here.

How the values were obtained:
[1] = tested on: Saccharomyces; test: Antimicrobial activity against Saccharomyces sake IFO 0305 after 7 days by agar dilution streak method; type: functional; conditions: IFO 0305, 168 h
[2] = tested on: Nannizzia gypsea; test: Antimicrobial activity against Microsporum gypseum IFO 8307 after 7 days by agar dilution streak method; type: functional; conditions: IFO 8307, 168 h
[3] = tested on: Trichophyton mentagrophytes; test: Antimicrobial activity against Trichophyton mentagrophytes IFO 5809 after 7 days by agar dilution streak method; type: functional; conditions: IFO 5809, 168 h
[4] = tested on: Epidermophyton floccosum; test: Antimicrobial activity against Epidermophyton floccosum IFO 9045 after 7 days by agar dilution streak method; type: functional; conditions: IFO 9045, 168 h
[5] = tested on: Trichophyton mentagrophytes; test: Fungistatic activity against Trichophyton mentagrophytes IFO 5809 at 100 ug/mL after 7 days by liquid dilution method; type: functional, organism-based
[6] = tested on: Trichophyton tonsurans var. sulfureum; test: Antimicrobial activity against Trichophyton tonsurans var. sulfureum IFO 5945 after 7 days by agar dilution streak method; type: functional; conditions: IFO 5945, 168 h
[7] = tested on: Kocuria rosea; test: Antimicrobial activity against Micrococcus roseus IFO 3764 after 24 hrs by agar dilution streak method; type: functional; conditions: IFO 3764, 24 h
[8] = tested on: Meyerozyma guilliermondii; test: Antimicrobial activity against Candida guilliermondii IFO 0454 at 200 ug/mL after 7 days by paper disk method; type: functional, organism-based
[9] = tested on: Bacillus subtilis; test: Antimicrobial activity against Bacillus subtilis PCI 219 IFO 3513 after 24 hrs by agar dilution streak method; type: functional; conditions: PCI 219 IFO 3513, 24 h
[10] = tested on: Trichophyton rubrum; test: Antimicrobial activity against Trichophyton rubrum IFO 5808 after 7 days by agar dilution streak method; type: functional; conditions: IFO 5808, 168 h
[11] = tested on: Escherichia coli; test: Antimicrobial activity against Escherichia coli NIHJ IFO 12734 at 200 ug/mL after 24 hrs by paper disk method; type: functional, organism-based
[12] = tested on: Cyberlindnera jadinii; test: Antimicrobial activity against Candida utilis […] at 200 ug/mL after 7 days by paper disk method; type: functional, organism-based
[13] = tested on: Staphylococcus aureus; test: Antimicrobial activity against Staphylococcus aureus 209P IFO 12732 after 24 hrs by agar dilution streak method; type: functional; conditions: 209P IFO 12732, 24 h
[14] = tested on: Pichia norvegensis; test: Antimicrobial activity against Candida mycoderma IFO 0162 at 200 ug/mL after 7 days by paper disk method; type: functional, organism-based
[15] = tested on: Micrococcus luteus; test: Antimicrobial activity against Micrococcus luteus IFO 12708 after 24 hrs by agar dilution streak method; type: functional; conditions: IFO 12708, 24 h
[16] = tested on: Candida albicans; test: Antimicrobial activity against Candida albicans IFO 0197 at 200 ug/mL after 7 days by paper disk method; type: functional, organism-based
[17] = tested on: Candida tropicalis; test: Antimicrobial activity against Candida tropicalis IFO 0006 at 200 ug/mL after 7 days by paper disk method; type: functional, organism-based
[18] = tested on: Serratia marcescens; test: Antimicrobial activity against Serratia marcescens IFO 12648 at 200 ug/mL after 24 hrs by paper disk method; type: functional, organism-based
[19] = tested on: Pseudomonas aeruginosa; test: Antimicrobial activity against Pseudomonas aeruginosa IFO 12689 at 200 ug/mL after 24 hrs by paper disk method; type: functional, organism-based

`CC(C)=CCCC1=CC(=O)c2c(O)ccc(O)c2C1=O` [DEOXYSHIKONIN] showed an MIC [1] of 6.2 µg/mL (≈ 22.8 µM), an MIC [2] of 6.2 µg/mL (≈ 22.8 µM) and an MIC [3] of 12.5 µg/mL (≈ 45.9 µM). For the same compound, the MIC [4] was 6.2 µg/mL (≈ 22.8 µM), the Activity [5] was “inactive” and the MIC [6] was 12.5 µg/mL (≈ 45.9 µM). The MIC [7] was 100 µg/mL (≈ 367 µM), the Activity [8] was “inactive” and the MIC [9] was 200 µg/mL (≈ 734 µM). For the same compound, the MIC [10] was 25 µg/mL (≈ 91.8 µM), the Activity [11] was “inactive” and the Activity [12] was “inactive”. For the same compound, the MIC [13] was 200 µg/mL (≈ 734 µM), the Activity [14] was “inactive” and the MIC [15] was 50 µg/mL (≈ 184 µM). For the same compound, the Activity [16] was “inactive”, the Activity [17] was “inactive” and the Activity [18] was “inactive”. The Activity [19] was “inactive”.
Work on `O=C(N[C@H](CO)[C@H](O)c1ccc([N+](=O)[O-])cc1)C(Cl)Cl` [CHLORAMPHENICOL] yielded an MIC [1] greater than 200 µg/mL, an MIC [7] of 25 µg/mL (≈ 77.4 µM) and an MIC [9] of 6.2 µg/mL (≈ 19.2 µM). For the same compound, the MIC [13] was 12.5 µg/mL (≈ 38.7 µM) and the MIC [15] was 6.2 µg/mL (≈ 19.2 µM).
Work on `CC(C)=CC[C@@H](O)C1=CC(=O)c2c(O)ccc(O)c2C1=O` [SHIKONIN] yielded an MIC [1] of 3.1 µg/mL (≈ 10.8 µM), an MIC [2] of 12.5 µg/mL (≈ 43.4 µM) and an MIC [3] of 25 µg/mL (≈ 86.7 µM). The MIC [4] was 6.2 µg/mL (≈ 21.5 µM), the MIC [6] was 25 µg/mL (≈ 86.7 µM) and the MIC [7] was 200 µg/mL (≈ 694 µM). For the same compound, the Activity [8] was “inactive”, the MIC [9] was greater than 200 µg/mL and the MIC [10] was 25 µg/mL (≈ 86.7 µM). The Activity [11] was “inactive”, the Activity [12] was “inactive” and the MIC [13] was greater than 200 µg/mL. The Activity [14] was “inactive”, the MIC [15] was 100 µg/mL (≈ 347 µM) and the Activity [16] was “inactive”. For the same compound, the Activity [17] was “inactive”, the Activity [18] was “inactive” and the Activity [19] was “inactive”.
Work on `COC1=CC(=O)C[C@@H](C)[C@]12Oc1c(Cl)c(OC)cc(OC)c1C2=O` [GRISEOFULVIN] yielded an MIC [2] of 1.5 µg/mL (≈ 4.25 µM), an MIC [3] of 3.1 µg/mL (≈ 8.79 µM) and an MIC [4] of 1.5 µg/mL (≈ 4.25 µM). It also gave an MIC [6] of 3.1 µg/mL (≈ 8.79 µM) and an MIC [10] of 3.1 µg/mL (≈ 8.79 µM).
